Measurements published in PubChem BioAssay (NCI).
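How tested: cells in 96-well plates exposed to compound for 48 hours at five concentrations. The concentration for full growth arrest is given as TGI.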

Legend:
Assay in all cases: DTP human tumour cell line panel, 48 h
UO-31 renal = test system: UO-31 renal
M14 melanoma = test system: M14 melanoma
NCI-H226 lung = test system: NCI-H226 lung
SK-MEL-5 melanoma = test system: SK-MEL-5 melanoma
DU-145 prostate = test system: DU-145 prostate
SF-295 CNS = test system: SF-295 CNS
A549 NSCLC = test system: A549 NSCLC
MALME-3M melanoma = test system: MALME-3M melanoma
OVCAR-5 ovarian = test system: OVCAR-5 ovarian
SR leukemia = test system: SR leukemia
ACHN renal = test system: ACHN renal
CCRF-CEM leukemia = test system: CCRF-CEM leukemia
HCC-2998 colon = test system: HCC-2998 colon
SF-268 CNS = test system: SF-268 CNS
HOP-18 NSCLC = test system: HOP-18 NSCLC
PC-3 prostate = test system: PC-3 prostate
UACC-257 melanoma = test system: UACC-257 melanoma
KM12 colon = test system: KM12 colon
HL-60(TB) leukemia = test system: HL-60(TB) leukemia
SNB-75 CNS = test system: SNB-75 CNS
MDA-MB-435 = test system: MDA-MB-435
UACC-62 melanoma = test system: UACC-62 melanoma
DMS 114 small cell lung = test system: DMS 114 small cell lung
XF 498 CNS = test system: XF 498 CNS
OVCAR-3 ovarian = test system: OVCAR-3 ovarian
SK-OV-3 ovarian = test system: SK-OV-3 ovarian
MOLT-4 leukemia = test system: MOLT-4 leukemia
NCI/ADR-RES ovarian = test system: NCI/ADR-RES ovarian
HT29 colon = test system: HT29 colon
HCT-15 colon = test system: HCT-15 colon
DMS 273 small cell lung = test system: DMS 273 small cell lung
RXF 393 renal = test system: RXF 393 renal
786-0 renal = test system: 786-0 renal
T-47D breast = test system: T-47D breast
SK-MEL-28 melanoma = test system: SK-MEL-28 melanoma
SN12C renal = test system: SN12C renal
HOP-92 NSCLC = test system: HOP-92 NSCLC
A498 renal = test system: A498 renal
SNB-78 CNS = test system: SNB-78 CNS
MDA-MB-231 breast = test system: MDA-MB-231 breast
COLO 205 colon = test system: COLO 205 colon
SW-620 colon = test system: SW-620 colon
SNB-19 CNS = test system: SNB-19 CNS
DLD-1 colon = test system: DLD-1 colon
MDA-N = test system: MDA-N
NCI-H23 lung = test system: NCI-H23 lung
MCF7 breast = test system: MCF7 breast
M19-MEL melanoma = test system: M19-MEL melanoma
SF-539 CNS = test system: SF-539 CNS
OVCAR-4 ovarian = test system: OVCAR-4 ovarian
SK-MEL-2 melanoma = test system: SK-MEL-2 melanoma
LXFL 529 NSCLC = test system: LXFL 529 NSCLC
U251 CNS = test system: U251 CNS
NCI-H522 lung = test system: NCI-H522 lung
TK-10 renal = test system: TK-10 renal
HOP-62 NSCLC = test system: HOP-62 NSCLC
NCI-H460 lung = test system: NCI-H460 lung
LOX IMVI melanoma = test system: LOX IMVI melanoma
HCT-116 colon = test system: HCT-116 colon
IGROV1 ovarian = test system: IGROV1 ovarian
K-562 leukemia = test system: K-562 leukemia
KM20L2 colon = test system: KM20L2 colon
RXF-631 renal = test system: RXF-631 renal
OVCAR-8 ovarian = test system: OVCAR-8 ovarian
CAKI-1 renal = test system: CAKI-1 renal
EKVX NSCLC = test system: EKVX NSCLC

SMILES: O=c1cc(-c2ccccc2F)[nH]c2cc3c(cc12)OCO3
- TGI (UO-31 renal): > 100 µM
- TGI (M14 melanoma): 5.1 µM
- TGI (NCI-H226 lung): 1.81 µM
- TGI (SK-MEL-5 melanoma): 4.41 µM
- TGI (DU-145 prostate): 0.48 µM
- TGI (SF-295 CNS): 9.84 µM
- TGI (A549 NSCLC): > 100 µM
- TGI (MALME-3M melanoma): > 47.3 µM
- TGI (OVCAR-5 ovarian): > 100 µM
- TGI (SR leukemia): > 100 µM
- TGI (ACHN renal): > 100 µM
- TGI (CCRF-CEM leukemia): > 17.7 µM
- TGI (HCC-2998 colon): 0.399 µM
- TGI (SF-268 CNS): > 100 µM
- TGI (HOP-18 NSCLC): 61.1 µM
- TGI (PC-3 prostate): > 100 µM
- TGI (UACC-257 melanoma): > 77.5 µM
- TGI (KM12 colon): 17.1 µM
- TGI (HL-60(TB) leukemia): 1.09 µM
- TGI (SNB-75 CNS): 17.3 µM
- TGI (MDA-MB-435): 0.0217 µM
- TGI (UACC-62 melanoma): > 100 µM
- TGI (DMS 114 small cell lung): 51.7 µM
- TGI (XF 498 CNS): 91.7 µM
- TGI (OVCAR-3 ovarian): 0.779 µM
- TGI (SK-OV-3 ovarian): 14.2 µM
- TGI (MOLT-4 leukemia): > 18.3 µM
- TGI (NCI/ADR-RES ovarian): 0.246 µM
- TGI (HT29 colon): 0.643 µM
- TGI (HCT-15 colon): 4.22 µM
- TGI (DMS 273 small cell lung): > 100 µM
- TGI (RXF 393 renal): > 100 µM
- TGI (786-0 renal): 28.8 µM
- TGI (T-47D breast): > 100 µM
- TGI (SK-MEL-28 melanoma): > 100 µM
- TGI (SN12C renal): > 27.1 µM
- TGI (HOP-92 NSCLC): > 100 µM
- TGI (A498 renal): 2.13 µM
- TGI (SNB-78 CNS): > 100 µM
- TGI (MDA-MB-231 breast): 3.34 µM
- TGI (COLO 205 colon): 0.281 µM
- TGI (SW-620 colon): > 100 µM
- TGI (SNB-19 CNS): 6.95 µM
- TGI (DLD-1 colon): 2.82 µM
- TGI (MDA-N): 0.0396 µM
- TGI (NCI-H23 lung): 6.8 µM
- TGI (MCF7 breast): > 50.9 µM
- TGI (M19-MEL melanoma): > 100 µM
- TGI (SF-539 CNS): 0.357 µM
- TGI (OVCAR-4 ovarian): > 100 µM
- TGI (SK-MEL-2 melanoma): > 100 µM
- TGI (LXFL 529 NSCLC): 16.5 µM
- TGI (U251 CNS): 22.5 µM
- TGI (NCI-H522 lung): 0.238 µM
- TGI (TK-10 renal): 98.2 µM
- TGI (HOP-62 NSCLC): > 21 µM
- TGI (NCI-H460 lung): > 32.3 µM
- TGI (LOX IMVI melanoma): > 78.8 µM
- TGI (HCT-116 colon): > 58.5 µM
- TGI (IGROV1 ovarian): > 100 µM
- TGI (K-562 leukemia): > 15.7 µM

SMILES: COC(=O)C(=O)C(C(=O)C(=O)Nc1cc([N+](=O)[O-])ccc1C#N)c1nc2ccccc2[nH]c1=O (stereo not drawn)
- TGI (UO-31 renal): > 100 µM
- TGI (M14 melanoma): > 100 µM
- TGI (NCI-H226 lung): > 100 µM
- TGI (SK-MEL-5 melanoma): > 100 µM
- TGI (SF-295 CNS): > 100 µM
- TGI (A549 NSCLC): > 100 µM
- TGI (MALME-3M melanoma): > 100 µM
- TGI (SR leukemia): > 100 µM
- TGI (ACHN renal): > 100 µM
- TGI (CCRF-CEM leukemia): > 100 µM
- TGI (HCC-2998 colon): > 100 µM
- TGI (SF-268 CNS): > 100 µM
- TGI (HOP-18 NSCLC): > 100 µM
- TGI (UACC-257 melanoma): > 100 µM
- TGI (KM12 colon): > 100 µM
- TGI (KM20L2 colon): > 100 µM
- TGI (HL-60(TB) leukemia): > 100 µM
- TGI (SNB-75 CNS): > 100 µM
- TGI (UACC-62 melanoma): > 100 µM
- TGI (DMS 114 small cell lung): > 100 µM
- TGI (XF 498 CNS): > 100 µM
- TGI (OVCAR-3 ovarian): > 100 µM
- TGI (SK-OV-3 ovarian): > 100 µM
- TGI (MOLT-4 leukemia): > 100 µM
- TGI (RXF-631 renal): > 100 µM
- TGI (HT29 colon): > 100 µM
- TGI (HCT-15 colon): > 100 µM
- TGI (DMS 273 small cell lung): > 100 µM
- TGI (RXF 393 renal): > 100 µM
- TGI (786-0 renal): > 100 µM
- TGI (SK-MEL-28 melanoma): > 100 µM
- TGI (SN12C renal): > 100 µM
- TGI (HOP-92 NSCLC): > 100 µM
- TGI (OVCAR-8 ovarian): > 100 µM
- TGI (COLO 205 colon): > 100 µM
- TGI (SW-620 colon): > 100 µM
- TGI (SNB-19 CNS): > 100 µM
- TGI (DLD-1 colon): > 100 µM
- TGI (CAKI-1 renal): > 100 µM
- TGI (NCI-H23 lung): > 100 µM
- TGI (M19-MEL melanoma): > 100 µM
- TGI (EKVX NSCLC): > 100 µM
- TGI (SF-539 CNS): > 100 µM
- TGI (OVCAR-4 ovarian): > 100 µM
- TGI (LXFL 529 NSCLC): > 100 µM
- TGI (NCI-H522 lung): > 100 µM
- TGI (TK-10 renal): > 100 µM
- TGI (HOP-62 NSCLC): > 100 µM
- TGI (NCI-H460 lung): > 100 µM
- TGI (LOX IMVI melanoma): > 100 µM
- TGI (HCT-116 colon): > 100 µM
- TGI (IGROV1 ovarian): > 100 µM
